Measured values reported in patent US9771341B2, “Piperazine carbamates and methods of making and using same” (Abide Therapeutics, Inc., priority 2015, dated 2017).

Key:
Format in all cases: biochemical
FAAH = target: T1, FAAH (Mus musculus, UniProt O08914); assay: In vitro competitive activity-based protein profiling (mouse), FAAH; conditions: for inhibition at 1 µM: mouse proteome, in vitro; for IC50: mouse brain membrane fraction or cell lysates, 30 min preincubation at 37° C, FP-Rh probe
T1 construct: Proteomes (mouse brain membrane fraction or cell lysates); from tissue; host or cells: mouse brain membrane fraction (or unspecified cell lysates)
T1 sequence (O08914 1-579): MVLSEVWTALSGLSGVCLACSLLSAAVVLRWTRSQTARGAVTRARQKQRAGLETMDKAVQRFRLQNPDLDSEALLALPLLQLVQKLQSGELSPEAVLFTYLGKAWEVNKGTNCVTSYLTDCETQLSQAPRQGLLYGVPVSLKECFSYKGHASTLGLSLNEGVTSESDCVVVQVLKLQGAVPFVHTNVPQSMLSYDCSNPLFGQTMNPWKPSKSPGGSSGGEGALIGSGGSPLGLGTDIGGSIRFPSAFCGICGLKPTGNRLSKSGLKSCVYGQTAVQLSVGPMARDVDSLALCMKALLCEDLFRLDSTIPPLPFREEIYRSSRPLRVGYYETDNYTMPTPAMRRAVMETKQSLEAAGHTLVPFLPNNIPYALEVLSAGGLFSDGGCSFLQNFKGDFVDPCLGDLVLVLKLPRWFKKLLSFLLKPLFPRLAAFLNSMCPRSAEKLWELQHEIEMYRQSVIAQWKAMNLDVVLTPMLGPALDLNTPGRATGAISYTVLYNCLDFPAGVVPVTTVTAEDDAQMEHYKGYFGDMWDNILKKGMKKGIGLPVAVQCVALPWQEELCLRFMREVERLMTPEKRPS
Method: (§1) In Vitro Competitive Activity-Based Protein Profiling (Mouse).
Proteomes (mouse brain membrane fraction or cell lysates) (50 μL, 1.0 mg/mL total protein concentration) were preincubated with varying concentrations of inhibitors at 37° C. After 30 min, FP-Rh (1.0 μL, 50 μM in DMSO) was added and the mixture was incubated for another 30 min at 37° C. Reactions were quenched with SDS loading buffer (50 μL-4×) and run on SDS-PAGE. Following gel imaging, serine hydrolase activity was determined by measuring fluorescent intensity of gel bands corresponding to MAGL, ABHD6 and FAAH using ImageJ 1.43u software.

MAGL = target: T2, MAGL (Mus musculus, UniProt O35678); assay: In vitro competitive activity-based protein profiling (mouse), MAGL; conditions: for inhibition at 1 µM: mouse proteome, in vitro, read-out: % Inhibition at 1 μM MAGL; for IC50: mouse brain membrane fraction or cell lysates, 30 min preincubation at 37° C, FP-Rh probe
T2 construct: Proteomes (mouse brain membrane fraction or cell lysates); from tissue; host or cells: mouse brain membrane fraction (or unspecified cell lysates)
T2 sequence (O35678 1-303): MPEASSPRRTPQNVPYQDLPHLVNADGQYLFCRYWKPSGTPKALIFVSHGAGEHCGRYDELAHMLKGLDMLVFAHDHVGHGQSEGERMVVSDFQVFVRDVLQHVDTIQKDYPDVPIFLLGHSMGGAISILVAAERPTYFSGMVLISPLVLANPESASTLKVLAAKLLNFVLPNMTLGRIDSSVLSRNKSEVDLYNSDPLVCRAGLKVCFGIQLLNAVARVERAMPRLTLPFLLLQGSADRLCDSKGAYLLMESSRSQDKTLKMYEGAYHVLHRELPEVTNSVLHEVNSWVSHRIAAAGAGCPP
Method: as §1
(§2) Proteomes (mouse brain membrane fraction or cell lysates) (50 μL, 1.0 mg/mL total protein concentration) were preincubated with varying concentrations of inhibitors at 37° C. After 30 min, FP-Rh (1.0 μL, 50 μM in DMSO) was added and the mixture was incubated for another 30 min at 37° C. Reactions were quenched with SDS loading buffer (50 μL-4×) and run on SDS-PAGE.

ABHD6 = target: T3, ABHD6 (Mus musculus, UniProt Q8R2Y0); assay: In vitro competitive activity-based protein profiling (mouse), ABHD6; conditions: for inhibition at 1 µM: mouse proteome, in vitro, read-out: % Inhibition at 1 μM ABHD6; for IC50: mouse brain membrane fraction or cell lysates, 30 min preincubation at 37° C, FP-Rh probe
T3 construct: Proteomes (mouse brain membrane fraction or cell lysates); from tissue; host or cells: mouse brain membrane fraction (or unspecified cell lysates)
T3 sequence (Q8R2Y0 1-336): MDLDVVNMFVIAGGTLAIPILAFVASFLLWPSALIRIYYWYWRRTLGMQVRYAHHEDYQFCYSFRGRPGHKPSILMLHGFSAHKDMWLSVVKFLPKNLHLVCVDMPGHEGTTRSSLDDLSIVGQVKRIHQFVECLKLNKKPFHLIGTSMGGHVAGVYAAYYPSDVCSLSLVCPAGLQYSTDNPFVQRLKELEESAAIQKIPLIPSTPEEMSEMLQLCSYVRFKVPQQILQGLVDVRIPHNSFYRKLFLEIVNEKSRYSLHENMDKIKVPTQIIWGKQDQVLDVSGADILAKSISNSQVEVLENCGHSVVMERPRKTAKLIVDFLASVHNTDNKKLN
Method: as §1, §2

inhibition at 1 µM (FAAH) [%] | IC50 (FAAH) [nM] | inhibition at 1 µM (MAGL) [%] | IC50 (MAGL) [nM] | inhibition at 1 µM (ABHD6) [%] | IC50 (ABHD6) [nM] | Structure (SMILES)
< 25 | > 1000 | > 75 | < 100 | > 75 | < 100 | CC(=O)N1CCN(Cc2cccc(CN3CCN(C(=O)OC(C(F)(F)F)C(F)(F)F)CC3)c2C)CC1 [Example 14, 1,1,1,3,3,3-hexafluoropropan-2-yl 4-(3-((4-acetylpiperazin-1-yl)methyl)-2-methylbenzyl)piperazine-1-carboxylate]
< 25 | > 1000 | > 75 | < 100 | > 75 | 100 to 1000 | Cc1c(CN2CCC(F)CC2)cccc1CN1CCN(C(=O)OC(C(F)(F)F)C(F)(F)F)CC1 [Example 15, 1,1,1,3,3,3-hexafluoropropan-2-yl 4-(3-((4-fluoropiperidin-1-yl)methyl)-2-methylbenzyl)piperazine-1-carboxylate]
< 25 | > 1000 | > 75 | 100 to 1000 | > 75 | 100 to 1000 | CC(=O)N[C@@H]1CCN(Cc2cccc(CN3CCN(C(=O)OC(C(F)(F)F)C(F)(F)F)CC3)c2C)C1 [Example 17, 1,1,1,3,3,3-hexafluoropropan-2-yl (R)-4-(3-((3-acetamidopyrrolidin-1-yl)methyl)-2-methylbenzyl)piperazine-1-carboxylate]
< 25 | > 1000 | > 75 | 100 to 1000 | > 75 | 100 to 1000 | CC(=O)N[C@H]1CCN(Cc2cccc(CN3CCN(C(=O)OC(C(F)(F)F)C(F)(F)F)CC3)c2C)C1 [Example 18, 1,1,1,3,3,3-hexafluoropropan-2-yl (S)-4-(3-((3-acetamidopyrrolidin-1-yl)methyl)-2-methylbenzyl)piperazine-1-carboxylate]
< 25 | > 1000 | > 75 | 100 to 1000 | > 75 | 100 to 1000 | Cc1c(CN2CCN(C(=O)OC(C(F)(F)F)C(F)(F)F)CC2)cccc1CN1CCCC[C@H]1C [Example 19, 1,1,1,3,3,3-hexafluoropropan-2-yl (R)-4-(2-methyl-3-((2-methylpiperidin-1-yl)methyl)benzyl)piperazine-1-carboxylate]
< 25 | > 1000 | > 75 | 100 to 1000 | > 75 | 100 to 1000 | Cc1c(CN2CCN(C(=O)OC(C(F)(F)F)C(F)(F)F)CC2)cccc1CN1CCCC[C@@H]1C [Example 20, 1,1,1,3,3,3-hexafluoropropan-2-yl (S)-4-(2-methyl-3-((2-methylpiperidin-1-yl)methyl)benzyl)piperazine-1-carboxylate]
< 25 | > 1000 | > 75 | 100 to 1000 | > 75 | 100 to 1000 | Cc1c(CN2CCOCC2)cccc1CN1CCN(C(=O)OC(C(F)(F)F)C(F)(F)F)CC1 [Example 21, 1,1,1,3,3,3-hexafluoropropan-2-yl 4-(2-methyl-3-(morpholinomethyl)benzyl)piperazine-1-carboxylate]
< 25 | > 1000 | > 75 | < 100 | > 75 | 100 to 1000 | O=C(OC(C(F)(F)F)C(F)(F)F)N1CCN(Cc2cccc(CN3CCOCC3)c2F)CC1 [Example 22, 1,1,1,3,3,3-hexafluoropropan-2-yl 4-(2-fluoro-3-(morpholinomethyl)benzyl)piperazine-1-carboxylate]
< 25 | > 1000 | > 75 | 100 to 1000 | < 25 | > 1000 | O=C(OC(C(F)(F)F)C(F)(F)F)N1CCN(Cc2ccc(CN3CCCCC3)cc2OC(F)(F)F)CC1 [Example 24, 1,1,1,3,3,3-hexafluoropropan-2-yl 4-(4-(piperidin-1-ylmethyl)-2-(trifluoromethoxy)benzyl)piperazine-1-carboxylate]
< 25 | > 1000 | > 75 | 100 to 1000 | < 25 | > 1000 | O=C(OC(C(F)(F)F)C(F)(F)F)N1CCN(Cc2ccc(CN3CCCC3)cc2OC(F)(F)F)CC1 [Example 25, 1,1,1,3,3,3-hexafluoropropan-2-yl 4-(4-(pyrrolidin-1-ylmethyl)-2-(trifluoromethoxy)benzyl)piperazine-1-carboxylate]
< 25 | > 1000 | > 75 | < 100 | 25 to 75 | 100 to 1000 | O=C(OC(C(F)(F)F)C(F)(F)F)N1CCN(Cc2ccc(N3CC4CCC(C3)O4)cc2F)CC1 [Example 27, 1,1,1,3,3,3-hexafluoropropan-2-yl 4-(4-(8-oxa-3-azabicyclo[3.2.1]octan-3-yl)-2-fluorobenzyl)piperazine-1-carboxylate]
< 25 | > 1000 | > 75 | 100 to 1000 | < 25 | > 1000 | O=C(OC(C(F)(F)F)C(F)(F)F)N1CCN(Cc2ccc(N3CC4CCC(C3)O4)cc2OC(F)(F)F)CC1 [Example 28, 1,1,1,3,3,3-hexafluoropropan-2-yl 4-(4-(8-oxa-3-azabicyclo[3.2.1]octan-3-yl)-2-(trifluoromethoxy)benzyl)piperazine-1-carboxylate]
< 25 | > 1000 | > 75 | 100 to 1000 | < 25 | > 1000 | O=C(OC(C(F)(F)F)C(F)(F)F)N1CCN(Cc2cc(Cl)cc(CN3CCCC3)c2)CC1 [Example 29, 1,1,1,3,3,3-hexafluoropropan-2-yl 4-(3-chloro-5-(pyrrolidin-1-ylmethyl)benzyl)piperazine-1-carboxylate]
< 25 | > 1000 | > 75 | 100 to 1000 | < 25 | > 1000 | CN(C)C(=O)C1CCN(c2cc(Cl)ccc2CN2CCN(C(=O)OC(C(F)(F)F)C(F)(F)F)CC2)CC1 [Example 34, 1,1,1,3,3,3-hexafluoropropan-2-yl 4-(4-chloro-2-(4-(dimethylcarbamoyl)piperidin-1-yl)benzyl)piperazine-1-carboxylate]
< 25 | > 1000 | > 75 | < 100 | > 75 | 100 to 1000 | NC(=O)C1CCN(c2cc(C(F)(F)F)ccc2CN2CCN(C(=O)OC(C(F)(F)F)C(F)(F)F)CC2)CC1 [Example 36, 1,1,1,3,3,3-hexafluoropropan-2-yl 4-(2-(4-carbamoylpiperidin-1-yl)-4-(trifluoromethyl)benzyl)piperazine-1-carboxylate]
< 25 | > 1000 | > 75 | 100 to 1000 | < 25 | > 1000 | O=C(OC(C(F)(F)F)C(F)(F)F)N1CCN(Cc2ccc(Cl)cc2N2CCC(C(=O)N3CCCC3)CC2)CC1 [Example 37, 1,1,1,3,3,3-hexafluoropropan-2-yl 4-(4-chloro-2-(4-(pyrrolidine-1-carbonyl)piperidin-1-yl)benzyl)piperazine-1-carboxylate]
